Results published in PMC9838390, “Discovery and biosynthesis of karnamicins as angiotensin converting enzyme inhibitors” (Nature Communications, 2023).
Several values for one entry are separate records, joined by “and”; a condition that tells them apart may be missing. Equal entries are not always repeated.

Legend:
Format in all cases: biochemical, L. rhizosphaerae NEAU-A2
KnmB2 [1] = test: Hydrogen peroxide formation assay of KnmB2 and variants
Method: (§1) Hydrogen peroxide formation assay and NADPH oxidation
The hydrogen peroxide formed from KnmB1, KnmB2 and their variants were measured using the Hydrogen Peroxide Assay Kit (Beyotime Industrial Co. Ltd, Shanghai, China)4-5. 5–100 µL of enzyme reaction mixture was added to 100 µL of working reagent (S0038-1). The mixture was incubated for 30 min at 25 °C, at which time the absorbance at 560 nm was measured by NanoDrop 2000c (Fisher Scientific). […]
(§2) Spectral data for new compounds […]
Supplementary Figure 131. H2O2 generation and NADPH oxidation for KnmB2, KnmB1 and their variants. (a) Hydrogen peroxide formation of KnmB2 and variants. […]
(1 picture or pasted object on this page, not shown here) […]
(§3) H2O2 generation for KnmB2 and variants in the presence 24 or 32. Reaction conditions (h-j) for KnmB2 and their variants: 50 mM Tris-HCl buffer (pH 7.5), 0.15 mM NADPH, 2 μM KnmB2 or variants, or 0.1 mM substrate 24/32. Values are the means ± SD of n = 3 independent experiments, except for KnmB2+24 (T = 40 min), KnmB2-N219D+24 (T = 4 min), KnmB2-Y215F+24 (T= 1 min and 3 min) in i and j, and KnmB2+32 (T= 8 min) in j (n = 2). Source data are provided as a Source Data file. […]

KnmB1 = test: NADPH oxidation of KnmB1 and variants (340 nm); conditions: KnmB1 + compound
Method: Hydrogen peroxide formation assay and NADPH oxidation […]
(§4) NADPH detection was carried out in the cuvette by NanoDrop 2000c (Fisher Scientific). NADPH signal at 340 nm was monitored in time using 6220 M–1 cm–1 as […]
as §2
Reaction conditions: 50 mM Tris-HCl buffer (pH 7.5), 0.15 mM NADPH, and 2 μM KnmB1 or KnmB2. (e) NADPH oxidation of KnmB1 and variants. (f) NADPH oxidation of KnmB1 in the presence 24/32/36. (g) NADPH oxidation of KnmB1 and variants in the presence 24. Reaction conditions (e-g) for KnmB1 and their variants: 50 mM Tris-HCl buffer (pH 7.5), 0.15 mM NADPH, and 6 μM KnmB1 or variants, or 0.1 mM substrate 24/32/36. […]
2 μM KnmB2 or variants, or 0.1 mM substrate 24/32. […]
Source data are provided as a Source Data file. […]

KnmB2 [2] = test: NADPH oxidation of KnmB2 and variants (340 nm)
Method: as §1
The hydrogen peroxide formed from KnmB1, KnmB2 and their variants were measured using the Hydrogen Peroxide Assay Kit (Beyotime Industrial Co. Ltd, Shanghai, China)4-5. 5–100 µL of enzyme reaction mixture was added to 100 µL of working reagent (S0038-1). The mixture was incubated for 30 min at 25 °C, at which time the absorbance at 560 nm was measured by NanoDrop 2000c (Fisher Scientific). The level of H2O2 was calculated according to a standard concentration curve from standard […]
as §4, §2
Reaction conditions: 50 mM Tris-HCl buffer (pH 7.5),
0.15 mM NADPH, and 2 μM KnmB1 or KnmB2. […]
as §3, with “μM KnmB1 or variants, or 0.1 mM substrate 24/32/36. (h) NADPH oxidation of KnmB2 and variants. (i) NADPH oxidation of KnmB2 and variants in the presence 24 or 32. (j) H2O2” for “H2O2”

COc1cc(C(N)=O)nc(-c2csc(CCCCC(C)C)n2)c1 [Compound 32]
hydrogen peroxide formation of KnmB2 (absorbance UV λ=560 nm), average value (KnmB2 [1]; Fig. S131a, 1 mM NADPH, 16 μM KnmB2, 0.1 mM compound, 30 °C, 3 h, average of 3): 0.3257
H2O2 generation, average value (KnmB2 [1]; KnmB2+32, Time 0): 0.0000 µM
H2O2 generation, average value (KnmB2 [1]; KnmB2+32, Time 1): 27.0071 µM
H2O2 generation, average value (KnmB2 [1]; KnmB2+32, Time 2): 45.8172 µM
H2O2 generation, average value (KnmB2 [1]; KnmB2+32, Time 3): 50.8645 µM
H2O2 generation, average value (KnmB2 [1]; KnmB2+32, Time 4): 59.9799 µM
H2O2 generation, average value (KnmB2 [1]; KnmB2+32, Time 5): 63.9929 µM
H2O2 generation, average value (KnmB2 [1]; KnmB2+32, Time 8): 70.1572 µM
H2O2 generation, average value (KnmB2 [1]; KnmB2+32, Time 10): 68.2817 µM
H2O2 generation, average value (KnmB2 [1]; KnmB2+32, Time 15): 68.3920 µM
H2O2 generation, average value (KnmB2 [1]; KnmB2+32, Time 20): 65.9649 µM
H2O2 generation, average value (KnmB2 [1]; KnmB2+32, Time 30): 69.8125 µM
H2O2 generation, average value (KnmB2 [1]; KnmB2+32, Time 60): 64.9169 µM
NADPH oxidation of KnmB1 in the presence of compound (replicates 1, 2, 3) (KnmB1; Time 0): 0.0000 µM
NADPH oxidation of KnmB1 in the presence of compound, average value (KnmB1; Time 0): 0.0000 µM
NADPH oxidation of KnmB1 in the presence of compound (replicates 1, 2, 3) (KnmB1; Time 1): 1.5273 µM and 2.1061 µM and 2.0418 µM
NADPH oxidation of KnmB1 in the presence of compound, average value (KnmB1; Time 1): 1.8918 µM
NADPH oxidation of KnmB1 in the presence of compound (replicates 1, 2, 3) (KnmB1; Time 2): 1.8328 µM and 3.1029 µM and 1.2701 µM
NADPH oxidation of KnmB1 in the presence of compound, average value (KnmB1; Time 2): 2.0686 µM
NADPH oxidation of KnmB1 in the presence of compound (replicates 1, 2, 3) (KnmB1; Time 3): 2.5241 µM and 3.7621 µM and 2.2026 µM
NADPH oxidation of KnmB1 in the presence of compound, average value (KnmB1; Time 3): 2.8296 µM
NADPH oxidation of KnmB1 in the presence of compound (replicates 1, 2, 3) (KnmB1; Time 4): 3.7781 µM and 5.3698 µM and 2.4759 µM
NADPH oxidation of KnmB1 in the presence of compound, average value (KnmB1; Time 4): 3.8746 µM
NADPH oxidation of KnmB1 in the presence of compound (replicates 1, 2, 3) (KnmB1; Time 5): 4.0032 µM and 5.5627 µM and 2.3955 µM
NADPH oxidation of KnmB1 in the presence of compound, average value (KnmB1; Time 5): 3.9871 µM
NADPH oxidation of KnmB1 in the presence of compound (replicates 1, 2, 3) (KnmB1; Time 8): 4.4212 µM and 7.7974 µM and 3.6978 µM
NADPH oxidation of KnmB1 in the presence of compound, average value (KnmB1; Time 8): 5.3055 µM
NADPH oxidation of KnmB1 in the presence of compound (replicates 1, 2, 3) (KnmB1; Time 10): 5.8360 µM and 8.6174 µM and 5.4019 µM
NADPH oxidation of KnmB1 in the presence of compound, average value (KnmB1; Time 10): 6.6184 µM
NADPH oxidation of KnmB1 in the presence of compound (replicates 1, 2, 3) (KnmB1; Time 15): 7.9100 µM and 11.8971 µM and 10.3055 µM
NADPH oxidation of KnmB1 in the presence of compound, average value (KnmB1; Time 15): 10.0375 µM
NADPH oxidation of KnmB1 in the presence of compound (replicates 1, 2, 3) (KnmB1; Time 20): 9.0836 µM and 14.3891 µM and 16.4148 µM
NADPH oxidation of KnmB1 in the presence of compound, average value (KnmB1; Time 20): 13.2958 µM
NADPH oxidation of KnmB1 in the presence of compound (replicates 1, 2, 3) (KnmB1; Time 30): 13.7942 µM and 22.5402 µM and 24.0193 µM
NADPH oxidation of KnmB1 in the presence of compound, average value (KnmB1; Time 30): 20.1179 µM
NADPH oxidation of KnmB1 in the presence of compound (replicates 1, 2, 3) (KnmB1; Time 40): 17.5724 µM and 28.7299 µM and 26.9936 µM
NADPH oxidation of KnmB1 in the presence of compound, average value (KnmB1; Time 40): 24.4319 µM
NADPH oxidation of KnmB1 in the presence of compound (replicates 1, 2, 3) (KnmB1; Time 60): 24.1801 µM and 36.1576 µM and 36.4791 µM
NADPH oxidation of KnmB1 in the presence of compound, average value (KnmB1; Time 60): 32.2722 µM
stimulation of the reaction of KnmB2 with NADPH (KnmB2 [2]; 0.15 mM NADPH, 2 μM KnmB2, 0.1 mM compound (Fig. S131i, j)): could dramatically stimulate the reaction of KnmB2 with NADPH
NADPH oxidation, average value (KnmB2 [2]; KnmB2+32, Time 0): 0.0000 µM
NADPH oxidation, average value (KnmB2 [2]; KnmB2+32, Time 1): 36.1736 µM
NADPH oxidation, average value (KnmB2 [2]; KnmB2+32, Time 2): 67.6313 µM
NADPH oxidation, average value (KnmB2 [2]; KnmB2+32, Time 3): 89.9250 µM
NADPH oxidation, average value (KnmB2 [2]; KnmB2+32, Time 4): 104.0193 µM
NADPH oxidation, average value (KnmB2 [2]; KnmB2+32, Time 5): 113.9871 µM
NADPH oxidation, average value (KnmB2 [2]; KnmB2+32, Time 8): 126.0986 µM
NADPH oxidation, average value (KnmB2 [2]; KnmB2+32, Time 10): 129.3140 µM
NADPH oxidation, average value (KnmB2 [2]; KnmB2+32, Time 15): 133.2797 µM
NADPH oxidation, average value (KnmB2 [2]; KnmB2+32, Time 20): 134.8875 µM
NADPH oxidation, average value (KnmB2 [2]; KnmB2+32, Time 30): 135.6377 µM
NADPH oxidation, average value (KnmB2 [2]; KnmB2+32, Time 60): 137.7278 µM
